The values below come from PubChem BioAssay AID1996.

Converted amounts (≈) assume the structure as drawn.

For this data set the following is noted: buffer; pH 7.4; 200.0 µM.
As for `CC(C)N(Cc1ccccc1)C(=O)COC(=O)c1cnc(Cl)c(Cl)c1`, the kinetic solubility was determined as 33.9 µg/mL (≈ 88.9 µM).

As to `CC(=O)Nc1ccc(NC(=O)c2ccc(-c3ccccc3Cl)o2)cc1`, the kinetic solubility came out at 0.5 µg/mL (≈ 1.41 µM). The same measure for `COC(=O)c1sccc1NC(=O)COc1ccc(F)cc1Cl`: less than 0.7 µg/mL.

The compound `Cn1c(=O)n(CCOc2ccc([N+](=O)[O-])cc2)c2ccccc21` registered a solubility (kinetic) of 1.1 µg/mL (≈ 3.51 µM). The same measure for `COc1ccccc1CC(=O)Nc1cccc(C(=O)Nc2nccs2)c1`: 0.7 µg/mL (≈ 1.91 µM); for `CN(C)/C=C1\N=C(c2cccnc2Oc2ccc(Cl)cc2)OC1=O`: 1.6 µg/mL (≈ 4.65 µM). The same measure for `CCOc1ccc(N2CC(C(=O)N3CCCC3)CC2=O)cc1` (stereo not given): greater than 45.4 µg/mL; for `CCC(=O)N(CCC(c1ccc(C)cc1)c1ccco1)Cc1ccco1` (stereo not given): 45.6 µg/mL (≈ 130 µM); for `O=C(CCc1nc(-c2ccccc2)no1)Nc1cccnc1`: greater than 44.1 µg/mL. As for `Cc1ccn2c(NC3CCCC3)c(-c3ccncc3)nc2c1`, the figure is 35.3 µg/mL (≈ 121 µM); as for `C#CCn1cc(Cl)cc(C(=O)Nc2ccccc2)c1=O`, 2.1 µg/mL (≈ 7.32 µM); as for `O=C(COC(=O)c1ccc([N+](=O)[O-])o1)Nc1ccc(Br)cc1F`, 21 µg/mL (≈ 54.2 µM).

Take `O=C(Cc1ccccc1)NCC(=O)N/N=C/c1cccnc1`: the solubility (kinetic) was greater than 44.4 µg/mL. The same measure for `Cc1ccc(CN(C)C(=O)c2cccc(S(=O)(=O)N3CCCC3)c2)o1`: greater than 54.4 µg/mL; for `C[N+](C)(C)CCOP(=O)([O-])OP(=O)([O-])OC[C@H]1O[C@@H](n2ccc(N)nc2=O)[C@H](O)[C@@H]1O.[Na+]`: 3.7 µg/mL. The same measure for `O=C1CN(/N=C/c2ccc([N+](=O)[O-])o2)C(=O)N1`: greater than 35.7 µg/mL; for `COc1ccc(OCC(=O)NC2CCSc3ccccc32)cc1` (stereo not given): 38.6 µg/mL (≈ 117 µM). The same measure for `Cl.O=C(COc1ccc(Br)cc1)NCCN1CCCC1`: 51.8 µg/mL.

Turning to `Cc1onc(-c2ccccc2Cl)c1C(=O)N1CCCC1`, the solubility (kinetic) was greater than 43.6 µg/mL. Turning to `Cc1c(Cl)cccc1NC(=S)NC1CCCC1`, the solubility (kinetic) turned out to be 7.5 µg/mL (≈ 27.9 µM). Take `CCC(=NCCc1ccccc1)c1c(O)n(C)c(=O)n(C)c1=O`: the kinetic solubility was 42.3 µg/mL (≈ 134 µM). As for `N#C/C(=C\c1ccc([N+](=O)[O-])cc1)c1ccccn1`, the figure is 4.7 µg/mL (≈ 18.7 µM); as for `CC1(C)N2CC3([N+](=O)[O-])CN1CC([N+](=O)[O-])(C2)C3`, 34.5 µg/mL (≈ 135 µM); as for `COc1cc(S(=O)(=O)N2CCOCC2)ccc1NC(=O)COC(=O)c1ccc(Cl)nc1`, 6.4 µg/mL (≈ 13.6 µM). The same measure for `COc1ccc(CNc2ccc(Br)cc2)cc1`: less than 0.6 µg/mL; for `COc1ccc(-c2csc(N3CCSCC3)n2)cc1`: 0.3 µg/mL (≈ 1.03 µM); for `CCN1CCN(C(=O)C(C)Sc2nc3nc(C)cc(C)n3n2)CC1` (stereo not given): greater than 52.3 µg/mL.

The compound `O=C(CCN1C(=O)C2CC=CCC2C1=O)NC1CCCCC1` (stereo not given) returned a kinetic solubility greater than 45.7 µg/mL. For the compound `Cc1ccc(CNC(=O)CCn2c(=O)oc3ccccc32)cc1`, the solubility (kinetic) came out at 5.1 µg/mL (≈ 16.4 µM). The same measure for `Cc1cc(Cc2c(O)[nH]c(=S)[nH]c2=O)ccc1OC(C)C`: 34.8 µg/mL (≈ 114 µM); for `Cc1ccc(Nc2c(-c3ccc(N(C)C)cc3)nc3ncccn23)cc1`: 1 µg/mL (≈ 2.91 µM); for `COc1ccc([N+](=O)[O-])cc1NC(=O)CCC(=O)c1cccs1`: 3.8 µg/mL (≈ 11.4 µM).

`CC1CCN(c2nc(N(C)c3ccccc3)nc(N)c2[N+](=O)[O-])CC1` registered a solubility (kinetic) of 4.6 µg/mL (≈ 13.4 µM). As to `COc1cc(NC(=O)c2cccc(S(=O)(=O)N3CCCCC3)c2)cc(OC)c1OC`, the kinetic solubility came to 7.2 µg/mL (≈ 16.6 µM). As for `Cc1cccc(-c2nnc(SCC(=O)NC3CC3)n2C)c1`, the figure is greater than 45.4 µg/mL. As for `CC(=O)Nc1ccc(S(=O)(=O)NCCc2c[nH]c3ccc(C)cc23)cc1`, the figure is 33.8 µg/mL (≈ 91 µM). The same measure for `C=CCNC(=S)N1CCC(C(=O)c2ccc(F)cc2)CC1`: greater than 46 µg/mL; for `O=C(O)CC(NC(=O)C12CC3CC(CC(C3)C1)C2)c1ccc(F)cc1` (stereo not given): greater than 51.8 µg/mL; for `COc1cc2c(C#N)c(N3CCCCC3)nc(N)c2c(N)n1`: 39.8 µg/mL (≈ 133 µM).

`CCc1noc(C)c1C(=O)OCC(=O)NCc1ccc(Cl)cc1` showed a kinetic solubility of 8.4 µg/mL (≈ 24.9 µM). `Cn1c(=O)c2ccccc2n(CC(=O)Nc2ccc3c(c2)OCCO3)c1=O` returned a kinetic solubility of 4.6 µg/mL (≈ 12.5 µM).

Compound `CC(C)COc1ccc(CNC(=S)Nc2ccccc2)cc1Cl` yielded a solubility (kinetic) of less than 0.4 µg/mL. For the compound `O=C1CC(/C=C/c2ccccc2)=Nc2ccccc2N1`, the kinetic solubility turned out to be 2.1 µg/mL (≈ 8.01 µM). As for `O=C(CN1C(=O)NC(c2ccccc2)(c2ccccc2)C1=O)NCc1ccco1`, the figure is 13.7 µg/mL (≈ 35.2 µM). `CCc1ccc(OCC(=O)N2CC(C(=O)OC)Oc3ccccc32)cc1` (stereo not given) showed a kinetic solubility of 36.6 µg/mL (≈ 103 µM). The same measure for `Cn1c(NC2CCCCC2)c(N=O)c(=O)n(C)c1=O`: greater than 39.9 µg/mL.

Compound `Cc1cccc(OCC(=O)Nc2ccc3c(c2)C(=O)NC3=O)c1` gave a solubility (kinetic) of 1.3 µg/mL (≈ 4.19 µM). In the case of `COc1ccc(C(=O)N(c2ccccn2)C2CCCCC2)c(OC)c1`, the kinetic solubility is 49.9 µg/mL (≈ 147 µM). The same measure for `O=C(O)C(=O)O.O=C(c1ccco1)N1CCN(Cc2ccccc2F)CC1`: 33.9 µg/mL; for `Cc1nc(Cl)c(C(=O)NCc2ccccc2)c(C)c1Cl`: 35.6 µg/mL (≈ 115 µM).

In general, solubility (kinetic) refers to the concentration staying in solution when a stock, usually in DMSO, is diluted into the medium.
